Results reported in ChEMBL document CHEMBL3286152, “Development of a fluorometric microplate antiadhesion assay using uropathogenic Escherichia coli and human uroepithelial cells” (J Nat Prod, 2014).
Converted amounts (≈) assume the structure as drawn. The source made the active and inactive calls. The calls are words filed in the database; no cut-off is given here.

Experiments:
Escherichia coli [1] = assay: Bactericidal activity against BacLight Green labeled Escherichia coli up to 30 ug/ml; format: ADME, organism-based
Escherichia coli [2] = assay: Inhibition of BacLight Green labeled Escherichia coli adherence to human UEC after 1 hr by flow cytometry analysis; format: functional, organism-based
Escherichia coli [3] = assay: Inhibition of BacLight Green labeled Escherichia coli adherence to human UEC at 1 ug/ml after 1 hr by flow cytometry analysis; format: functional, organism-based
Escherichia coli [4] = assay: Inhibition of BacLight Green labeled Escherichia coli adherence to human UEC at 0.1 ug/ml after 1 hr by flow cytometry analysis; format: functional, organism-based
Escherichia coli [5] = assay: Induction of morphological changes in BacLight Green labeled Escherichia coli assessed as alteration of fimbriae structure and distribution by fusing fimbriae at 10 ug/ml after 1 hr by transmission electron microscopy analysis; format: functional, organism-based
Escherichia coli [6] = assay: Inhibition of BacLight Green labeled Escherichia coli adherence to human UEC at 10 ug/ml after 1 hr by scanning electron microscopy analysis; format: functional, organism-based
Escherichia coli [7] = assay: Inhibition of BacLight Green labeled Escherichia coli adherence to human UEC at 50 ug/ml after 1 hr by scanning electron microscopy analysis; format: functional, organism-based
Escherichia coli [8] = assay: Induction of morphological changes in BacLight Green labeled Escherichia coli assessed as decrease of number of fimbriae at 50 ug/ml after 1 hr by transmission electron microscopy analysis; format: functional, organism-based

Compound	Activity (Escherichia coli [1])	inhibition (Escherichia coli [2])	inhibition (Escherichia coli [3])	inhibition (Escherichia coli [4])	IC50 (Escherichia coli [2]) [µg/mL]	Activity (Escherichia coli [5])	inhibition (Escherichia coli [6])	inhibition (Escherichia coli [7])	Activity (Escherichia coli [8])
Oc1cc(O)c2c(c1)O[C@H](c1ccc(O)c(O)c1)[C@H](O)[C@H]2c1c(O)cc(O)c2c1O[C@H](c1ccc(O)c(O)c1)[C@@H](O)C2 [PROCYANIDIN B1]	Non-toxic	Dose-dependent effect	Active						
Oc1cc(O)c2c(c1)O[C@@]1(c3ccc(O)c(O)c3)Oc3cc(O)c4c(c3[C@@H]2[C@H]1O)O[C@H](c1ccc(O)c(O)c1)[C@H](O)C4 [PROANTHOCYANIDIN A2]	Non-toxic	inactive							
O=C(/C=C/c1ccc(O)c(O)c1)O[C@@H]1C[C@](O)(C(=O)O)C[C@@H](O)[C@H]1O [CHLOROGENIC ACID]	Non-toxic	inactive							
O=c1c(O)c(-c2ccc(O)c(O)c2)oc2cc(O)cc(O)c12 [QUERCETIN]	Non-toxic	Dose-dependent effect		Active	3.8 (≈ 12.6 µM)				
Oc1cc(O)c2c(c1)O[C@H](c1ccc(O)c(O)c1)[C@H](O)[C@H]2c1c(O)cc(O)c2c1O[C@H](c1ccc(O)c(O)c1)[C@H](O)[C@H]2c1c(O)cc(O)c2c1O[C@H](c1ccc(O)c(O)c1)[C@H](O)C2 [PROCYANIDIN C1]	Non-toxic	Dose-dependent effect	Active						
O=c1c(O)c(-c2cc(O)c(O)c(O)c2)oc2cc(O)cc(O)c12 [MYRICETIN]	Non-toxic	Dose-dependent effect		Active	0.88 (≈ 2.77 µM)	Active	Active		
Oc1cc(O)c2c(c1)O[C@H](c1ccc(O)c(O)c1)[C@H](O)[C@H]2c1c(O)cc(O)c2c1O[C@H](c1ccc(O)c(O)c1)[C@H](O)C2 [PROCYANIDIN B2]	Non-toxic	Dose-dependent effect	Active					Active	Active
